We go through 15 molecules from US11261170B2, “Aromatic compound, pharmaceutical composition and use thereof” (Sichuan Kelun-Biotech Biopharmaceutical Co., Ltd., priority 2017, dated 2022).

The test system of series [1] is MCD model of non-alcoholic steatohepatitis. The series can be described thus: In vivo efficacy study in the MCD model of non-alcoholic steatohepatitis. Also noted: species or system C57 Mice. Particulars: MCD diet mice. The protocol:
Test Example 6: In Vivo Efficacy Study of Compound in the MCD Model of Non-Alcoholic Steatohepatitis In this example, comparative test between compound GFT505 from WO2018133705A1 and compounds of the invention was conducted, so as to show the advantages of compounds of the invention. C57 Mice at 8-10 weeks of age (purchased from Vital River Laboratories) were body-weight matched and randomly divided into groups of normal, model, control and test. Mice in normal group were fed with standard chow for 9 weeks. Mice in model group, control group and test group were fed with MCD diet (Methionine-Choline Deficient Diet, Research Diets) for 9 weeks to induce NASH Model. During weeks 5-9 of the 9-week course of MCD diet, the control group and the test group were treated with GFT505 and TM4 of the invention, respectively, and the normal group and model group were treated with 0.5% MC. The dosage regimen was specified in table 5. [table] Animals were dissected after administration on day 35, livers were collected for H&E staining (hematoxylin-eosin staining) and sirius red staining. And then NAFLD activity score, including liver steatosis score, inflammation score and ballooning score, and liver fibrosis score were conducted.

Series [2] in a line: Cytotoxicity test on HEK293 cells (CellTiter Glo). The format is cell-based. Particulars: human, incubated for 3 days. Here is the method: (§1) Test Example 4: Cytotoxicity Test of Compound on HepG2 & Hek293 Cells
(§2) Cells: human hepatocyte HepG2, purchased from ATCC; Human embryonic kidney cells HEK293: purchased from ATCC;
(§3) Assay reagent: CellTiter Glo® Luminescent Cell Viability Assay, purchased from Promega.
(§4) HepG2 and HEK293 cells were incubated in DMEM/F12 medium containing 10% of fetal bovine serum respectively. A proper amount of cells were plated into a 96-well plate, the plate was placed in an incubator overnight, and the culture medium was removed, and replaced with a complete culture medium containing the compound of the application, and incubated for 3 days. On day 4, an assay reagent CellTiter Glo was added to each well, and the relative luminous unit (RLU) of each well was determined by chemiluminescence. CC50 values of the compound of the application to HepG2 and HEK293 cells were calculated by GraphPad software, and the results were shown in Table 3.
(ATP-based viability assays read luminescence as a measure of living cells.)

Series [3] concerns the target hERG potassium ion channel (Homo sapiens (Human), UniProt Q12809). Description: Predictor hERG fluorescence polarization. The format is binding. Here is the method: Test Example 5: In Vitro Safety Test
The effect of the compound on hERG potassium ion channel was tested by Predictor™ hERG fluorescence polarization.

The nature of series [4]: Cytotoxicity test on HepG2 cells (CellTiter Glo). The conditions noted are these: human, incubated for 3 days. In kind it is cell-based. The protocol: as §1, §2, §3, §4
In the next series the target is PPARδ (Homo sapiens (Human), UniProt Q03181). The series can be described thus: Activation of transient transfected PPAR δ in HEK293 cells (GAL4-hPPAR δ luciferase assay). The format is cell-based. Particulars: HEK293 transfected with GAL4-hPPAR δ, 24 h incubation. The protocol:
Test Example 2: Experiment of the Compounds on Activation of Transient Transfected PPAR δ in HEK293 Cells
Plasmid: pcDNA3.1(+)-GAL4-hPPAR δ, customized by Nanjing Kebai Biotechnology Co., Ltd.
(§5) Liposome: PGL4.35, customized by Nanjing Kebai Biotechnology Co., Ltd.
(§6) Cell: human embryonic kidney cells HEK293, purchased from ATCC.
(§7) Transfection reagent: Lipofectamine Reagent 3000 purchased from Invitrogen.
(§8) Assay kit: Bright Glo™ Luciferase Assay System purchased from Promega.
(§9) HEK293 cells were incubated in DMEM medium containing 10% of fetal bovine serum at 37° C. in the presence of 5% of CO2. 3×10^5/ml cells were plated in each well of the 6-well plate. When the cell convergence degree reached 50%-80%, 5 μg of liposome PGL4.35 and 5 μg of expression plasmid pcDNA3.1(+)-GAL4-hPPAR δ were added to transfect the cells for 24 h and then the cells were collected. Then, the transfected cells were plated in the 96-well plate and the compounds of the application in different concentrations were added, incubated for 24 h, and Bright Glo™ Luciferase Assay System reagent for luciferase assay was added.

For the next series, the target named is PPARα (Homo sapiens (Human), UniProt Q07869). The series can be described thus: Activation of transient transfected PPAR α in HEK293 cells (GAL4-hPPAR α luciferase assay). In kind it is cell-based. The conditions noted are these: HEK293 transfected with GAL4-hPPAR α, 24 h incubation. Here is the method: Test example 1: Experiment of the compounds on activation of transient transfected PPAR α in HEK293 cells
Chain of PPARα (Q07869 whole entry, looked up, the tested form may be a part): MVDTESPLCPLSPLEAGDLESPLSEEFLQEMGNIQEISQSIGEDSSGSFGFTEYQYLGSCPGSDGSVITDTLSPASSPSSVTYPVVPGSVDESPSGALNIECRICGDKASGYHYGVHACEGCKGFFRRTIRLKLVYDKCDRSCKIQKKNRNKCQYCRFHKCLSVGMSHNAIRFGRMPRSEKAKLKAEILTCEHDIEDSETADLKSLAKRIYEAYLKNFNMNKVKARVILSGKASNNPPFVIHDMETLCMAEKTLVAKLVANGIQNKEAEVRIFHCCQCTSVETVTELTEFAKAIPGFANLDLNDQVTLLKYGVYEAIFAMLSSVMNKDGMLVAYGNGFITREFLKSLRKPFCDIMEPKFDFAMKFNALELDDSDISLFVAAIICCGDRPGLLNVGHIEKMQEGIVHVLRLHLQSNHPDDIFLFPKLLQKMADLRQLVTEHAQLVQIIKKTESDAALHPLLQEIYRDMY
Plasmid: pcDNA3.1(+)-GAL4-hPPAR α, customized by Nanjing Kebai Biotechnology Co., Ltd.
as §5, §6, §7, §8
as §9, with “α” for “δ”, “The” for “Then, the”, “reagent was added” for “reagent”, “assay.” for “assay was added.”

The mark [5] stands for this setting: 1 mg/kg intragastric once every day for 35 days.
The mark [6] stands for this setting: 1 mg/kg, 35 days, result in words.

Chain of hERG potassium ion channel (Q12809 whole entry): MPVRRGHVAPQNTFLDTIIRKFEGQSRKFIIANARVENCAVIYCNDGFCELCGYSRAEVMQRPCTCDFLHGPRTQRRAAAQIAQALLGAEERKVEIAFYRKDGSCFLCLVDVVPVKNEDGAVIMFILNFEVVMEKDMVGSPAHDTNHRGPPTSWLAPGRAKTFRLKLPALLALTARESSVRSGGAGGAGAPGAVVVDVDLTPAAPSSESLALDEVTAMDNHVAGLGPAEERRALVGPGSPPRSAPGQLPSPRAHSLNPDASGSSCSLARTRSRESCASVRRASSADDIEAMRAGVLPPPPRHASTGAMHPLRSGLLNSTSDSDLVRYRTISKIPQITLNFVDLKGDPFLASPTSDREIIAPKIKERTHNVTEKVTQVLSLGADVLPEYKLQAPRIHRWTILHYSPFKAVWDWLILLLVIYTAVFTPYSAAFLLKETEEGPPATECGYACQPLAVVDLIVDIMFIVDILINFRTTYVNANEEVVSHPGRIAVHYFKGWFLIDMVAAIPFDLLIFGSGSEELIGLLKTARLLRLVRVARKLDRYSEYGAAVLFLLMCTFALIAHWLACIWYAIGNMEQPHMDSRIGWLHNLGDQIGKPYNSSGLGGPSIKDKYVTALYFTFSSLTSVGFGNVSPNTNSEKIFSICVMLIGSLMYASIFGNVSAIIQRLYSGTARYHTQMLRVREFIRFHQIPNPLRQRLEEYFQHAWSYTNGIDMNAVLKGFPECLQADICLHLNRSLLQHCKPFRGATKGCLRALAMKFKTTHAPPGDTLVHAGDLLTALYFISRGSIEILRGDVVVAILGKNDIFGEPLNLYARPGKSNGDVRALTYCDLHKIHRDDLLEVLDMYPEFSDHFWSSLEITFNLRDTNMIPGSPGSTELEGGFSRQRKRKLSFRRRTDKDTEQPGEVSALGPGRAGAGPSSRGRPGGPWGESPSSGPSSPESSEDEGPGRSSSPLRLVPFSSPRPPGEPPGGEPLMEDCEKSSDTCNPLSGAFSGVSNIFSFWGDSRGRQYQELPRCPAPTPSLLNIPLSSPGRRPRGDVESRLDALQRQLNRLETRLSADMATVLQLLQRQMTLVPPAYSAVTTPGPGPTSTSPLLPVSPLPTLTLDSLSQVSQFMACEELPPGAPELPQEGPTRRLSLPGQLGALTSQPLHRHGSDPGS
Chain of PPARδ (Q03181 whole entry, looked up, the tested form may be a part): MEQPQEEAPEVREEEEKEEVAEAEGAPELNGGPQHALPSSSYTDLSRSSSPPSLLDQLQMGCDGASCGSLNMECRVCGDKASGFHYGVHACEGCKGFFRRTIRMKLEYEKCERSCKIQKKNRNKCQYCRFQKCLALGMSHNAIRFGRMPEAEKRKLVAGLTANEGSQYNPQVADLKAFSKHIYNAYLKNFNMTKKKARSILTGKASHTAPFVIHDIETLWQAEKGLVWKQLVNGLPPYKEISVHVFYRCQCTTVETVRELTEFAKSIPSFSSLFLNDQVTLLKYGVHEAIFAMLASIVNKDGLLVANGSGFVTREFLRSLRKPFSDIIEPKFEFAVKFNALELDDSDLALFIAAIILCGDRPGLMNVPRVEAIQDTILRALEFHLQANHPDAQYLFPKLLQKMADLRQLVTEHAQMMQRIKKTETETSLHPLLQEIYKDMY

Consider `CSc1ccc(C(=O)/C=C/c2cc(C)c(OC(C)(C)C(=O)O)c(C)c2)cc1` [GFT505, reference compound], for which, in series [1] (setting [5]), the “Liver fibrosis score (Mean ± SD)” value is 1.22 ± 0.44 and the “NAFLD activity score (Mean ± SD)” value was found to be 3.33 ± 0.87. In series [1] (setting [6]), the “Reduction of NAFLD activity score compared with model group” value was “not statistically significant” and the “Reduction of liver fibrosis score compared with model group” value is “not statistically significant”.

In the case of `Cc1cc(/C=C/C(=O)c2cc3ccccc3nc2Cl)cc(C)c1OC(C)(C)C(=O)O` [Example 4, (E)-2-(4-(3-(2-chloroquinolin-3-yl)-3-oxo-1-propen-1-yl)-2,6-dimethylphenoxy)-2-methyl propionic acid], the CC50 at 3 days amounted to 13600 nM in series [2] and 11300 nM in series [4]. In series [3], the half-inhibitory concentration (IC50) is > 10000 nM. Also, the results for the EC50 on PPARδ and at PPARα were 3440 nM and 278 nM, respectively.

In the case of `COc1ccc2nc(OC)c(C(=O)/C=C/c3cc(C)c(OC(C)(C)C(=O)O)c(C)c3)cc2c1` [Example 21, (E)-2-(4-(3-(2,6-dimethoxy-quinolin-3-yl)-3-oxo-1-propen-1-yl)-2,6-dimethylphenoxy)-2-methylpropionic acid], the concentration for half-maximal inhibition (IC50) in series [3] was > 10000 nM. Moreover, the EC50 at PPARδ came out at 675 nM; at PPARα, 5.4 nM.

For the molecule `Cc1cc(/C=C/C(=O)c2cnc3ccccc3c2)cc(C)c1OC(C)(C)C(=O)O` [Example 3, (E)-2-(4-(3-(quinolin-3-yl)-3-oxo-1-propen-1-yl)-2,6-dimethylphenoxy)-2-methylpropionic acid], the IC50 in series [3] was > 10000 nM. The molecule also yielded an EC50 at PPARα of 1930 nM.

Turning to `Cc1cc(/C=C/C(=O)c2cc3ccccc3nc2C)cc(C)c1OC(C)(C)C(=O)O` [Example 7, (E)-2-(4-(3-(2-methylquinolin-3-yl)-3-oxo-1-propen-1-yl)-2,6-dimethylphenoxy)-2-methylpropionic acid], the CC50 at 3 days in series [2] and in series [4] was > 10000 nM in each case. For the same molecule, a half-maximal effect at PPARα (EC50) was put at 752 nM.

On to `Cc1cc(/C=C/C(=O)c2cc3ccccc3nc2N(C)C)cc(C)c1OC(C)(C)C(=O)O` [Example 9, (E)-2-(4-(3-(2-dimethylaminoquinolin-3-yl)-3-oxo-1-propen-1-yl)-2,6-dimethylphenoxy)-2-methylpropionic acid], for which, in series [3], the concentration for half-maximal inhibition (IC50) is > 10000 nM.

Turning to `CSc1nc2ccccc2cc1C(=O)/C=C/c1cc(C)c(OC(C)(C)C(=O)O)c(C)c1` [Example 17, (E)-2-(4-(3-(2-methylthioquinolin-3-yl)-3-oxo-1-propen-1-yl)-2,6-dimethylphenoxy)-2-methylpropionic acid], the IC50 in series [3] was > 10000 nM. Besides, the EC50 at PPARα is 123 nM.

As for `COCCOc1nc2ccccc2cc1C(=O)/C=C/c1cc(C)c(OC(C)(C)C(=O)O)c(C)c1` [Example 6, (E)-2-(4-(3-(2-(2-methoxyethoxy)quinolin-3-yl)-3-oxo-1-propen-1-yl)-2,6-dimethylphenoxy)-2-methylpropionic acid], the CC50 at 3 days in series [2] and in series [4] was > 10000 nM each time. The IC50 in series [3] is > 10000 nM. The half-maximal effective concentration (EC50) at PPARδ worked out at 374 nM; on PPARα it was 52.8 nM.

On to `COc1ccc2cc(C(=O)/C=C/c3cc(C)c(OC(C)(C)C(=O)O)c(C)c3)c(Cl)nc2c1` [Example 18, (E)-2-(4-(3-(2-chloro-7-methoxy-quinolin-3-yl)-3-oxo-1-propen-1-yl)-2,6-dimethylphenoxy)-2-methylpropionic acid], for which the IC50 in series [3] is > 10000 nM. Besides, the results for the EC50 at PPARδ and at PPARα were 810 nM and 8.62 nM, respectively.

With `Cc1cc(/C=C/C(=O)c2cc3ccccc3nc2N2CCCC2)cc(C)c1OC(C)(C)C(=O)O` [Example 10, (E)-2-(4-(3-(2-(1-pyrrolidinyl)quinolin-3-yl)-3-oxo-1-propen-1-yl)-2,6-dimethylphenoxy)-2-methylpropionic acid], the IC50 in series [3] was > 10000 nM. Further, the figures for the EC50 on PPARδ and at PPARα were 2510 nM and 77 nM, respectively.

Regarding `COc1ccc2cc(C(=O)/C=C/c3cc(C)c(OC(C)(C)C(=O)O)c(C)c3)c(OC)nc2c1` [Example 19, (E)-2-(4-(3-(2,7-dimethoxy-quinolin-3-yl)-3-oxo-1-propen-1-yl)-2,6-dimethylphenoxy)-2-methylpropionic acid], in series [3], the IC50 is > 10000 nM. Also, the EC50 at PPARδ amounted to 796 nM; at PPARα it was 1.33 nM.

With `Cc1cc(/C=C/C(=O)c2cc3ccccc3s2)cc(C)c1OC(C)(C)C(=O)O` [Example 2, (E)-2-(4-(3-(benzo [b]thien-2-yl)-3-oxo-1-propen-1-yl)-2,6-dimethylphenoxy)-2-methylpropionic acid], the CC50 at 3 days was ~8140 nM in series [2] and ~7270 nM in series [4]. Moreover, the half-inhibitory concentration (IC50) in series [3] was 8240 nM. The EC50 at PPARδ amounted to 6130 nM; at PPARα it was 1210 nM.

Turning to `Cc1cc(/C=C/C(=O)c2cc3ccccc3nc2N2CCOCC2)cc(C)c1OC(C)(C)C(=O)O` [Example 11, (E)-2-(4-(3-(2-(morpholin-4-yl)quinolin-3-yl)-3-oxo-1-propen-1-yl)-2,6-dimethylphenoxy)-2-methylpropionic acid], the EC50 was 4430 nM at PPARδ and 585 nM on PPARα.

Molecule `COc1ccc2nc(Cl)c(C(=O)/C=C/c3cc(C)c(OC(C)(C)C(=O)O)c(C)c3)cc2c1` [Example 20, (E)-2-(4-(3-(2-chloro-6-methoxy-quinolin-3-yl)-3-oxo-1-propen-1-yl)-2,6-dimethylphenoxy)-2-methylpropionic acid] displayed a half-maximal effective concentration (EC50) on PPARα of 460 nM.

`Cc1cc(/C=C/C(=O)c2cc3ccccc3nc2C(F)(F)F)cc(C)c1OC(C)(C)C(=O)O` [Example 8, (E)-2-(4-(3-(2-trifluoromethylquinolin-3-yl)-3-oxo-1-propen-1-yl)-2,6-dimethylphenoxy)-2-methylpropionic acid]: the CC50 at 3 days in series [2] and in series [4] was > 10000 nM throughout. The 50% inhibitory concentration (IC50) in series [3] was > 10000 nM. The EC50 at PPARα turned out to be 692 nM.

Usually CC50 stands for the concentration that lowers cell viability or growth by half. Read a low CC50 as harm at low concentration. Usually IC50 stands for the point on the concentration scale where inhibition reaches its midpoint. In general, EC50 refers to the concentration that produces a half-maximal response. Read a low EC50 as higher potency in that assay.
